In assay [1] the test system is IL-1β, mouse primary microglia. The assay can be described thus: Inflammasome assay in primary mouse postnatal microglia using LPS/0 mM extracellular K+ (IL-1β levels). Type of assay: cell-based. The following applies: 100 ng/mL LPS 3.5 hours, compound 30 minutes, then K+ free buffer 2 hours, IL-1β by MesoScale Discovery. Here is the method:
Newly shaken mouse microglia cells were added to a 96-well plate and left to adhere overnight. After this time, 100 ng/mL LPS was added to each well and incubated at 37° C. for 3.5 hours, at which point compound addition was undertaken and plates incubated at 37° C. for an additional 30 minutes. After this time, the medium in each well was removed and replaced with K^+ free buffer and the plates then incubated for an additional 2 hours at 37° C. Measurement of IL-1βlevels in the sample wells was undertaken using MesoScale Discovery™ MESO QuickPlex SQ 120 and […] from mouse IL-1β DuoSet ELISA kit (R&D System, DY401).

The next assay deals with T1, human KCNK13 (Homo sapiens, UniProt Q9HB14).
T1 construct: expressed in transfected cells
T1 sequence (Q9HB14 1-408): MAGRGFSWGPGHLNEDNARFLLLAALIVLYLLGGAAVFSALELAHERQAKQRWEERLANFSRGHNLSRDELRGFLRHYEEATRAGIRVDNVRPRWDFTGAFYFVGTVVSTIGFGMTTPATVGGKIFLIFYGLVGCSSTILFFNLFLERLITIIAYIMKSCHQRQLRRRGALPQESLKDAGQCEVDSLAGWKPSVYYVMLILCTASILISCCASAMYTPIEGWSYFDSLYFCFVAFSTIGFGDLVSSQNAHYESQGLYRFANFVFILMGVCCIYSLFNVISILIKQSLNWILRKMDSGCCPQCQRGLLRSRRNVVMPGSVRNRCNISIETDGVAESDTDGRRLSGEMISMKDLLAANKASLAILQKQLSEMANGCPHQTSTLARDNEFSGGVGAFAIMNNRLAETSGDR
As to the kind of experiment: KCNK13 antagonist activity, thallium (Tl+) flux FLIPR assay. Type of assay: cell-based. In outline: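 HEK 293 cells stably expressing human KCNK13 loaded with Tl+-sensitive dye for 1 h at room temperature. Compounds (10-point half-log curves) preincubated 15 min before thallium sulfate stimulus, fluorescence tracked by FLIPR. IC50 from ten-point curves, each point the mean of two wells.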

Where [2] appears, read: HEK 293 cells stably expressing human KCNK13, Tl+ sensitive dye, FLIPR, compounds 15 minutes prior to thallium sulfate, 10 point half log curves from 10 PM, read-out: hKCNK13 IC50.

What is called IC50 is the concentration that gives 50% inhibition.

Read-outs that look alike come from different tables or passages of the source.

Turning to `Nc1nonc1-c1nc2cccc(F)c2n1Cc1cccnc1` (single isomer, unassigned) [Example 86, 4-[7-fluoro-1-(pyridin-3-ylmethyl)benzimidazol-2-yl]-1,2,5-oxadiazol-3-amine], the 50% inhibitory concentration (IC50) was at most 50 nM in assay [1] and under 50 nM at human KCNK13 (setting [2]).

Regarding `Cc1nonc1-c1nc2cccc(F)c2n1Cc1cncnc1` [Example 49, 3-[7-fluoro-1-(pyrimidin-5-ylmethyl)benzimidazol-2-yl]-4-methyl-1,2,5-oxadiazole], the 50% inhibitory concentration (IC50) was at most 50 nM in assay [1] and under 100 nM at human KCNK13 (setting [2]).

As for `Nc1nonc1-c1nc2cccc(F)c2n1Cc1ccncc1` (single isomer, unassigned) [Example 120, 4-[7-fluoro-1-(pyridin-4-ylmethyl)benzimidazol-2-yl]-1,2,5-oxadiazol-3-amine], the 50% inhibitory concentration (IC50) in assay [1] is at most 50 nM; on human KCNK13 (setting [2]) it was under 50 nM.

Turning to `Nc1nonc1-c1nc2ccccc2n1Cc1ccncc1` [Example 71, 4-[1-(pyridin-4-ylmethyl)benzimidazol-2-yl]-1,2,5-oxadiazol-3-amine], the IC50 in assay [1] is at most 200 nM; on human KCNK13 (setting [2]), under 100 nM.

In the case of `Nc1nonc1-c1nc2cccc(F)c2n1Cc1cnccn1` [Example 32, 4-[7-fluoro-1-(pyrazin-2-ylmethyl)benzimidazol-2-yl]-1,2,5-oxadiazol-3-amine], the IC50 in assay [1] is at most 200 nM; on human KCNK13 (setting [2]), under 50 nM.

For the molecule `Nc1nonc1-c1nc2ccccc2n1Cc1cncnc1` [Example 21, 4-[1-(pyrimidin-5-ylmethyl)benzimidazol-2-yl]-1,2,5-oxadiazol-3-amine], the IC50 was at most 100 nM in assay [1] and under 50 nM on human KCNK13.

In turn, `Nc1nonc1-c1nc2cc(F)cnc2n1Cc1ccc(Cl)nc1` [Example 29, 4-[3-[(6-chloropyridin-3-yl)methyl]-6-fluoro-imidazo[4,5-b]pyridin-2-yl]-1,2,5-oxadiazol-3-amine] showed an IC50 against human KCNK13 of under 50 nM.

Consider `Cc1nonc1-c1nc2ccccc2n1Cc1cncnc1` [Example 57, 3-methyl-4-[1-(pyrimidin-5-ylmethyl)benzimidazol-2-yl]-1,2,5-oxadiazole], for which the results for the 50% inhibitory concentration (IC50) (in assay [1]; at human KCNK13 (setting [2])) were at most 200 nM and under 100 nM, respectively.

In the case of `Cc1nonc1-c1nc2ccccc2n1Cc1ncccc1F` [Example 82, 3-[1-[(3-fluoropyridin-2-yl)methyl]benzimidazol-2-yl]-4-methyl-1,2,5-oxadiazole], the IC50 at human KCNK13 (setting [2]) was under 1000 nM.

`Cc1nonc1-c1nc2cccnc2n1Cc1cncnc1` [Example 13, 3-methyl-4-[3-(pyrimidin-5-ylmethyl)imidazo[4,5-b]pyridin-2-yl]-1,2,5-oxadiazole]: on human KCNK13 (setting [2]), the IC50 was under 200 nM.

For `Cc1nonc1-c1nc2c(F)cccc2n1Cc1ccc(C#N)nn1` [Example 47, 6-[[4-fluoro-2-(4-methyl-1,2,5-oxadiazol-3-yl)benzimidazol-1-yl]methyl]pyridazine-3-carbonitrile], the concentration for half-maximal inhibition (IC50) at human KCNK13 (setting [2]) was under 200 nM.

Turning to `Cc1nonc1-c1nc2ccccc2n1Cc1ccc(O)nc1` [Example 54, 5-[[2-(4-methyl-1,2,5-oxadiazol-3-yl)benzimidazol-1-yl]methyl]pyridin-2-ol], the IC50 at human KCNK13 (setting [2]) is under 500 nM.

In the case of `COc1cc(Cn2c(-c3nonc3N)nc3ccccc32)ccn1` [Example 93, 4-[1-[(2-methoxypyridin-4-yl)methyl]benzimidazol-2-yl]-1,2,5-oxadiazol-3-amine], on human KCNK13 (setting [2]), the IC50 is under 50 nM.

For `Cc1ocnc1-c1nc2ccccc2n1Cc1cccnc1` [Example 103, 5-methyl-4-[1-(pyridin-3-ylmethyl)benzimidazol-2-yl]oxazole], the half-maximal inhibitory concentration (IC50) on human KCNK13 (setting [2]) is under 200 nM.

Turning to `Cc1cccc(Cn2c(-c3nonc3C)nc3ccccc32)n1` [Example 78, 3-methyl-4-[1-[(6-methylpyridin-2-yl)methyl]benzimidazol-2-yl]-1,2,5-oxadiazole], the IC50 on human KCNK13 (setting [2]) was under 500 nM.

For the molecule `Nc1nonc1-c1nc2c(F)ccc(F)c2n1Cc1ccncc1` [Example 155, 4-(4,7-difluoro-1-(pyridin-4-ylmethyl)-benzimidazol-2-yl)-1,2,5-oxadiazol-3-amine], on human KCNK13 (setting [2]), the IC50 is under 50 nM.

`C=Cc1nsnc1-c1nc2ccccc2n1Cc1cccnc1` [Example 89, 3-[1-(pyridin-3-ylmethyl)benzimidazol-2-yl]-4-vinyl-1,2,5-thiadiazole]: the IC50 at human KCNK13 (setting [2]) was under 50 nM.

`CCS(=O)(=O)c1ccc(Cn2c(-c3nonc3C)nc3ccccc32)cn1` [Example 180, 3-(1-((6-(ethylsulfonyl)pyridin-3-yl)methyl)-benzimidazol-2-yl)-4-methyl-1,2,5-oxadiazole]: the IC50 at human KCNK13 (setting [2]) is under 500 nM.

As for `Nc1nonc1-c1nc2ccc(F)c(F)c2n1Cc1ccncc1` [Example 145, 4-(6,7-difluoro-1-(pyridin-4-ylmethyl)-benzimidazol-2-yl)-1,2,5-oxadiazol-3-amine], the half-maximal inhibitory concentration (IC50) on human KCNK13 (setting [2]) was under 50 nM.

On to `Cc1nonc1-c1nc2cccnc2n1Cc1cnc(C#N)nc1` [Example 165, 5-((2-(4-methyl-1,2,5-oxadiazol-3-yl)-3H-imidazo[4,5-b]pyridin-3-yl)methyl)pyrimidine-2-carbonitrile], for which the IC50 at human KCNK13 (setting [2]) was under 100 nM.

In the case of `Nc1nonc1-c1nc2ccc(F)cc2n1Cc1ccncc1` [Example 91, 4-[6-fluoro-1-(pyridin-4-ylmethyl)benzimidazol-2-yl]-1,2,5-oxadiazol-3-amine], the 50% inhibitory concentration (IC50) on human KCNK13 (setting [2]) is under 50 nM.

As to `Nc1nonc1-c1nc2ccccc2n1Cc1ccc(C(F)(F)F)nc1` [Example 97, 4-[1-[[6-(trifluoromethyl)pyridin-3-yl]methyl]benzimidazol-2-yl]-1,2,5-oxadiazol-3-amine], the half-inhibitory concentration (IC50) at human KCNK13 (setting [2]) was under 100 nM.

In the case of `[2H]C([2H])(c1cccnc1)n1c(-c2nonc2C)nc2c(F)cccc21` (single isomer, unassigned) [Example 30, 3-[1-[dideuterio(pyridin-3-yl)methyl]-4-fluoro-benzimidazol-2-yl]-4-methyl-1,2,5-oxadiazole], the IC50 on human KCNK13 (setting [2]) was under 50 nM.

Values taken from patent US20240158385A1, “NOVEL COMPOUNDS” (Cerevance, Inc., priority 2021, published 2024).
